Assay results as given in patent US11040981B2, “Pyrrolotriazine compounds and methods of inhibiting TAM kinases” (Syros Pharmaceuticals, Inc., priority 2017, dated 2021).

Key:
[1] = biological target: T1, AXL (Homo sapiens, UniProt P30530); assay: TR-FRET kinase activity assay, AXL; type: biochemical; settings: ATP at Km, 60 minutes
T1 sequence (P30530 26-894): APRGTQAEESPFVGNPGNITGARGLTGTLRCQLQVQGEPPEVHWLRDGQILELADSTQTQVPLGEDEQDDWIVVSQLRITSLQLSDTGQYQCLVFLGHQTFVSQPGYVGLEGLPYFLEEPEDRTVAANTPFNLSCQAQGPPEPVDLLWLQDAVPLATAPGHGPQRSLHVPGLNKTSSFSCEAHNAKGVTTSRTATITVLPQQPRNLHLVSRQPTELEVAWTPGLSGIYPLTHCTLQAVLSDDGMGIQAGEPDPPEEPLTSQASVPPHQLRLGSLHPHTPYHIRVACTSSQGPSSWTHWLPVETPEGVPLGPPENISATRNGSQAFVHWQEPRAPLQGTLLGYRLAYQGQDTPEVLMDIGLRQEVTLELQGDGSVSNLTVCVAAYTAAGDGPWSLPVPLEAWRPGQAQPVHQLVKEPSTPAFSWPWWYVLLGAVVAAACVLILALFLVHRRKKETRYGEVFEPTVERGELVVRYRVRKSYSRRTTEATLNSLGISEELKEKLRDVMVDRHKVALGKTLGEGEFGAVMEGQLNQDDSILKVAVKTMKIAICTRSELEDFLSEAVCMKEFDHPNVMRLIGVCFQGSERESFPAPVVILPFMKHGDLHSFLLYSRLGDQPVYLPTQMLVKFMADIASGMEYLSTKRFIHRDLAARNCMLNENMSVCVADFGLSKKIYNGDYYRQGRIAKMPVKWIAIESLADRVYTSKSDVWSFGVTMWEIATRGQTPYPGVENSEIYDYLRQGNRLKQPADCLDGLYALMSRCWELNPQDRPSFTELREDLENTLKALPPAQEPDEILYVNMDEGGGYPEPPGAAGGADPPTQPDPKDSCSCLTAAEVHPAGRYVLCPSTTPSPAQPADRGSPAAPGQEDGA
Summary of the method: (§1)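 Recombinant human kinases, fluorescent peptide substrate, ATP at Km; 1 h RT, pH 7.5. EDTA-quenched, Eu antibody added, TR-FRET read; IC50 determined.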

[2] = biological target: T2, TYRO3 (Homo sapiens, UniProt Q06418); assay: TR-FRET kinase activity assay, TYRO3; type: biochemical; settings: ATP at Km, 60 minutes
T2 sequence (Q06418 41-890): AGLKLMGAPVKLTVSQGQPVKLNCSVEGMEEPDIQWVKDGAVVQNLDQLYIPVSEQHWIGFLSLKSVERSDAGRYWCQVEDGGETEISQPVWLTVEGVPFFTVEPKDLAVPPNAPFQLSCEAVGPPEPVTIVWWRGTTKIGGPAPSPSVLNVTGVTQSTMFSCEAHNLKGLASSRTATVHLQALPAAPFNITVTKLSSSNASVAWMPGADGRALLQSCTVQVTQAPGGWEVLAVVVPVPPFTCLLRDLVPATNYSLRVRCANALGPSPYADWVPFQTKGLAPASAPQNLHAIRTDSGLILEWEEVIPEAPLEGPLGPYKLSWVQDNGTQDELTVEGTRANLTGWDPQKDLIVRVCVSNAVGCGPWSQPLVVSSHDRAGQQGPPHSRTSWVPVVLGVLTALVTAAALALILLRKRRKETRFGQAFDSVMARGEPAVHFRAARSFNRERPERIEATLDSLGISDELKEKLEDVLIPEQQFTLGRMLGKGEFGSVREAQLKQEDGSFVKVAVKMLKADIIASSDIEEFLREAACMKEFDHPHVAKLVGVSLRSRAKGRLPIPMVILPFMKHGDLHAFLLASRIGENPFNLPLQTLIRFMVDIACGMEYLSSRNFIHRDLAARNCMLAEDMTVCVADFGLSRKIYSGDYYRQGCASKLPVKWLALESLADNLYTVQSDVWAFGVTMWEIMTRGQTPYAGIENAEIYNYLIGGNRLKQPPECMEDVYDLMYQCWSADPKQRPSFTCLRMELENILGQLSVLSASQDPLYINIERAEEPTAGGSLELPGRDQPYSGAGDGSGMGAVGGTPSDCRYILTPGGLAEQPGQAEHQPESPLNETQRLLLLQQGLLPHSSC
Summary of the method: as §1

| IC50 [1] | IC50 [2] | Compound |
| --- | --- | --- |
| ≤ 100 nM | ≤ 100 nM | COC[C@H](C)Nc1ncc2c(-c3ccnc(N4CCN(C(=O)OC5COC5)CC4)c3)cc([C@H]3CC[C@H](O)CC3)n2n1 [Compound 504] |
| ≤ 100 nM | ≤ 100 nM | COC[C@H](C)Nc1ncc2c(-c3ccnc(F)c3)cc([C@H]3CC[C@H](O)CC3)n2n1 [Compound 505] |
| ≤ 100 nM | ≤ 100 nM | COC[C@H](C)Nc1ncc2c(-c3cnn(CC(C)(C)N4CCOCC4)c3)cc([C@H]3CC[C@H](O)CC3)n2n1 [Compound 507] |
| ≤ 100 nM | ≤ 100 nM | COC[C@H](C)Nc1ncc2c(-c3conc3C)cc([C@H]3CC[C@H](O)CC3)n2n1 [Compound 508] |
| ≤ 100 nM | ≤ 100 nM | COC[C@H](C)Nc1ncc2c(-c3ccnc(N4CCc5nc(C)sc5C4)c3)cc([C@H]3CC[C@H](O)CC3)n2n1 [Compound 509] |
